From PubChem BioAssay AID1259407 (Chemical Carcinogenesis Research Information System (CCRIS), 2018)
Active and inactive are the calls of the source. No rule for the calls is given here.

Tested on: CCRIS mutagenicity, Ames/micronucleus/aberration tests
Experiment: CCRIS mutagenicity studies
[1] = Test System: AMES SALMONELLA TYPHIMURIUM, Strain/Indicator: TA1537, Metabolic Activation: NONE, Method: STANDARD PLATE

Measured: mutagenic call

C=CC(=O)OCC
inactive: End Point: IN VITRO CHROMOSOMAL ABERRATIONS, Test System: CHO-LB CELLS, Metabolic Activation: NONE inactive; negative | Test System: AMES SALMONELLA TYPHIMURIUM, Strain/Indicator: TA98, Metabolic Activation: HAMSTER, LIVER, S-9, AROCLOR 1254, Method: PREINCUBATION inactive; negative | Test System: AMES SALMONELLA TYPHIMURIUM, Strain/Indicator: TA98, Metabolic Activation: NONE, Method: PREINCUBATION inactive; negative | Test System: AMES SALMONELLA TYPHIMURIUM, Strain/Indicator: TA98, Metabolic Activation: NONE, Method: STANDARD PLATE inactive; negative | Test System: AMES SALMONELLA TYPHIMURIUM, Strain/Indicator: TA98, Metabolic Activation: RAT, LIVER, S-9, AROCLOR 1254, Method: PREINCUBATION inactive; negative | Test System: AMES SALMONELLA TYPHIMURIUM, Strain/Indicator: TA98, Metabolic Activation: RAT, LIVER, S-9, AROCLOR 1254, Method: STANDARD PLATE inactive; negative | Test System: AMES SALMONELLA TYPHIMURIUM, Strain/Indicator: TA98, Metabolic Activation: RAT, LIVER, S-9, SODIUM PHENOBARBITAL, Method: STANDARD PLATE inactive; negative | Test System: AMES SALMONELLA TYPHIMURIUM, Strain/Indicator: TA100, Metabolic Activation: HAMSTER, LIVER, S-9, AROCLOR 1254, Method: PREINCUBATION inactive; negative | Test System: AMES SALMONELLA TYPHIMURIUM, Strain/Indicator: TA100, Metabolic Activation: NONE, Method: PREINCUBATION inactive; negative | Test System: AMES SALMONELLA TYPHIMURIUM, Strain/Indicator: TA100, Metabolic Activation: NONE, Method: STANDARD PLATE inactive; negative | Test System: AMES SALMONELLA TYPHIMURIUM, Strain/Indicator: TA100, Metabolic Activation: RAT, LIVER, S-9, AROCLOR 1254, Method: PREINCUBATION inactive; negative | Test System: AMES SALMONELLA TYPHIMURIUM, Strain/Indicator: TA100, Metabolic Activation: RAT, LIVER, S-9, AROCLOR 1254, Method: STANDARD PLATE inactive; negative | Test System: AMES SALMONELLA TYPHIMURIUM, Strain/Indicator: TA100, Metabolic Activation: RAT, LIVER, S-9, SODIUM PHENOBARBITAL, Method: STANDARD PLATE inactive; negative | Test System: AMES SALMONELLA TYPHIMURIUM, Strain/Indicator: TA1535, Metabolic Activation: HAMSTER, LIVER, S-9, AROCLOR 1254, Method: PREINCUBATION inactive; negative | Test System: AMES SALMONELLA TYPHIMURIUM, Strain/Indicator: TA1535, Metabolic Activation: NONE, Method: PREINCUBATION inactive; negative | Test System: AMES SALMONELLA TYPHIMURIUM, Strain/Indicator: TA1535, Metabolic Activation: NONE, Method: STANDARD PLATE inactive; negative | Test System: AMES SALMONELLA TYPHIMURIUM, Strain/Indicator: TA1535, Metabolic Activation: RAT, LIVER, S-9, AROCLOR 1254, Method: PREINCUBATION inactive; negative | Test System: AMES SALMONELLA TYPHIMURIUM, Strain/Indicator: TA1535, Metabolic Activation: RAT, LIVER, S-9, AROCLOR 1254, Method: STANDARD PLATE inactive; negative | Test System: AMES SALMONELLA TYPHIMURIUM, Strain/Indicator: TA1535, Metabolic Activation: RAT, LIVER, S-9, SODIUM PHENOBARBITAL, Method: STANDARD PLATE inactive; negative | Test System: AMES SALMONELLA TYPHIMURIUM, Strain/Indicator: TA1537, Metabolic Activation: HAMSTER, LIVER, S-9, AROCLOR 1254, Method: PREINCUBATION inactive; negative | Test System: AMES SALMONELLA TYPHIMURIUM, Strain/Indicator: TA1537, Metabolic Activation: NONE, Method: PREINCUBATION inactive; negative | [1] inactive; negative | Test System: AMES SALMONELLA TYPHIMURIUM, Strain/Indicator: TA1537, Metabolic Activation: RAT, LIVER, S-9, AROCLOR 1254, Method: PREINCUBATION inactive; negative | Test System: AMES SALMONELLA TYPHIMURIUM, Strain/Indicator: TA1537, Metabolic Activation: RAT, LIVER, S-9, AROCLOR 1254, Method: STANDARD PLATE inactive; negative | Test System: AMES SALMONELLA TYPHIMURIUM, Strain/Indicator: TA1537, Metabolic Activation: RAT, LIVER, S-9, SODIUM PHENOBARBITAL, Method: STANDARD PLATE inactive; negative | Test System: AMES SALMONELLA TYPHIMURIUM, Strain/Indicator: TA1538, Metabolic Activation: NONE, Method: STANDARD PLATE inactive; negative | Test System: AMES SALMONELLA TYPHIMURIUM, Strain/Indicator: TA1538, Metabolic Activation: RAT, LIVER, S-9, AROCLOR 1254, Method: STANDARD PLATE inactive; negative | Test System: AMES SALMONELLA TYPHIMURIUM, Strain/Indicator: TA1538, Metabolic Activation: RAT, LIVER, S-9, SODIUM PHENOBARBITAL, Method: STANDARD PLATE inactive; negative | Test System: Ames Salmonella typhimurium, Strain/Indicator: YG7108pin3ERb5, Metabolic Activation: None, Method: Standard plate inactive; negative
active: End Point: IN VITRO CHROMOSOMAL ABERRATIONS, Test System: CHO-LB CELLS, Metabolic Activation: RAT, LIVER, S-9, AROCLOR 1254 active; positive | Test System: CHINESE HAMSTER OVARY, Strain/Indicator: CHO-K1-BH4 (HGPRT)/6-THIOGUANINE, Metabolic Activation: NONE, Method: SUSPENSION/PLATE active; positive | Test System: CHINESE HAMSTER OVARY, Strain/Indicator: CHO-K1-BH4 (HGPRT), Metabolic Activation: NONE, Method: MONOLAYER active; positive | Test System: CHINESE HAMSTER OVARY, Strain/Indicator: CHO-K1-BH4 (HGPRT), Metabolic Activation: NONE, Method: SUSPENSION/PLATE active; positive | Test System: MOUSE LYMPHOMA, Strain/Indicator: L5178Y (TK+/TK-), Metabolic Activation: RAT, LIVER, S-9, AROCLOR 1254, Method: SUSPENSION/PLATE active; positive. reevaluation of results: positive | Test System: MOUSE LYMPHOMA, Strain/Indicator: L5178Y (TK+/TK-), Metabolic Activation: RAT, LIVER, S-9, AROCLOR, Method: SUSPENSION/PLATE active; positive

CCCCN(N=O)C(=O)N(C)C
active: Test System: E. COLI, Strain/Indicator: WP2 UVRA, Metabolic Activation: NONE, Method: PREINCUBATION active; positive | Test System: E. COLI, Strain/Indicator: WP2 UVRA, Metabolic Activation: RAT, LIVER, S-9, PHENOBARBITAL AND 5,6-BENZOFLAVONE, Method: PREINCUBATION active; positive

CN(C)CCNC(=O)c1cccn2c(=O)c3ccccc3nc12
active: [1] active; positive
